Assay results from publication PMC7588595, “Small-molecule active pharmaceutical ingredients of approved cancer therapeutics inhibit human aspartate/asparagine-β-hydroxylase” (Bioorganic & Medicinal Chemistry, 2020).
Where a name gives a salt, the structure may show the parent alone. Read-outs that look alike come from different tables or passages of the source.

Target: T1, human AspH (His6-AspH315–758) (Homo sapiens, UniProt Q12797)
T1 construct: N-Terminally His6-tagged human AspH315–758 (His6-AspH315–758) was produced in Escherichia coli BL21 (DE3) cells; made in house; host or cells: Escherichia coli BL21 (DE3), pET-28a(+) vector
T1 sequence (Q12797 315-758): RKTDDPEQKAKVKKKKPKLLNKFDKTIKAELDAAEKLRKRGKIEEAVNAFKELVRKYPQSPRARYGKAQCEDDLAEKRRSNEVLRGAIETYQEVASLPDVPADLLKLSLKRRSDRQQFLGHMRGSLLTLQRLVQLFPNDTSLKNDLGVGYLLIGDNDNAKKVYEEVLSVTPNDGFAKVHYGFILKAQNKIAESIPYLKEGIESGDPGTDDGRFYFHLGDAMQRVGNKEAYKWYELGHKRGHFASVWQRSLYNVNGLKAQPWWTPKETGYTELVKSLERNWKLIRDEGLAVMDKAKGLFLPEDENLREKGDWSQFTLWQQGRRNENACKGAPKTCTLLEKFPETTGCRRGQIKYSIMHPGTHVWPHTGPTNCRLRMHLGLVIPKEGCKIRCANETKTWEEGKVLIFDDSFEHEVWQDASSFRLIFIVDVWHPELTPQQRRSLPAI
Assay: SPE-MS AspH inhibition assay (hFX-CP101-119 substrate hydroxylation)
Format: biochemical

[1] = AspH-inhibitor screening, 384-well Plate 1
[2] = AspH-inhibitor screening, 384-well Plate 1, substrate conversion
[3] = AspH-inhibitor screening, Plate 1-duplicate
[4] = AspH-inhibitor screening, Plate 1-duplicate, substrate conversion

SMILES | Plate 1 (% inhibition) [1] | Plate 1 (% conversion) [2] | Plate 1-duplicate (% inhibition) [3] | Plate 1-duplicate (% conversion) [4] | Plate 1 (% conversion) | Plate 1 (% inhibition) | Plate 1-duplicate (% conversion) | Plate 1-duplicate (% inhibition)
CC(C)C[C@H](NC(=O)[C@@H](COC(C)(C)C)NC(=O)[C@H](Cc1ccc(O)cc1)NC(=O)[C@H](CO)NC(=O)[C@H](Cc1c[nH]c2ccccc12)NC(=O)[C@H](Cc1cnc[nH]1)NC(=O)[C@@H]1CCC(=O)N1)C(=O)N[C@@H](CCCNC(=N)N)C(=O)N1CCC[C@H]1C(=O)NNC(N)=O [Goserelin acetate] | -21.27% | 59.57% | -15.30% | 59.63% |  |  |  | 
O=S(=O)(c1cccc2cnccc12)N1CCCNCC1 [HA-1077 (Fasudil)] | 1.01% | 49.28% | 12.84% | 45.67% |  |  |  | 
COC(=O)C[C@](O)(CCCC(C)(C)O)C(=O)O[C@@H]1C(OC)=C[C@]23CCCN2CCc2cc4c(cc2[C@H]13)OCO4 [Homoharringtonine] | 6.00% | 46.98% | 5.43% | 49.35% |  |  |  | 
NC(=O)NO [Hydroxyurea] | 16.85% | 41.97% | 8.68% | 47.74% |  |  |  | 
COc1cc2c(cc1-c1c(C)noc1C)ncc1[nH]c(=O)n([C@H](C)c3ccccn3)c12 [I-BET151 (GSK1210151A)] | 3.78% | 48.01% | 1.98% | 51.06% |  |  |  | 
N#CC[C@H](C1CCCC1)n1cc(-c2ncnc3[nH]ccc23)cn1 [INCB018424 (free base, Ruxolitinib)] | 4.31% | 47.76% | 3.98% | 50.07% |  |  |  | 
CC(C)n1nc(-c2ccc3oc(N)nc3c2)c2c(N)ncnc21 [INK128] | 4.97% | 47.46% | 4.58% | 49.77% |  |  |  | 
CC(=O)[C@]1(O)Cc2c(O)c3c(c(O)c2[C@@H](O[C@H]2C[C@H](N)[C@H](O)[C@H](C)O2)C1)C(=O)c1ccccc1C3=O [Idarubicin HCl] | 6.62% | 46.69% | 5.28% | 49.42% |  |  |  | 
CC[C@H](Nc1ncnc2[nH]cnc12)c1nc2cccc(F)c2c(=O)n1-c1ccccc1 [Idelalisib] | 9.55% | 45.34% | 7.71% | 48.22% |  |  |  | 
O=P1(NCCCl)OCCCN1CCCl (stereo not drawn) [Ifosfamide] | 7.87% | 46.12% | 4.50% | 49.81% |  |  |  | 
CC(C)Cn1cnc2c(N)nc3ccccc3c21 [Imiquimod] | 3.84% | 47.98% | 5.27% | 49.43% |  |  |  | 
O=C(Nc1ccncc1)C(=O)c1cn(Cc2ccc(Cl)cc2)c2ccccc12 [Indibulin] | 45.36% | 28.80% | 2.65% | 50.73% |  |  |  | 
NC(=O)c1ccc(I)c([N+](=O)[O-])c1 [Iniparib (BSI-201, IND-71677)] | 6.32% | 46.83% | 5.00% | 49.56% |  |  |  | 
CCc1c2c(nc3ccc(OC(=O)N4CCC(N5CCCCC5)CC4)cc13)-c1cc3c(c(=O)n1C2)COC(=O)[C@]3(O)CC.Cl [Irinotecan hydrochloride] | -1.48% | 50.43% | 0.58% | 51.76% |  |  |  | 
CCc1c2c(nc3ccc(OC(=O)N4CCC(N5CCCCC5)CC4)cc13)-c1cc3c(c(=O)n1C2)COC(=O)[C@]3(O)CC [Irinotecan] | 1.66% | 48.98% | -3.53% | 53.79% |  |  |  | 
C/C(=C\c1csc(C)n1)[C@@H]1C[C@@H]2O[C@]2(C)CCC[C@H](C)[C@H](O)[C@@H](C)C(=O)C(C)(C)[C@@H](O)CC(=O)N1 [Ixabepilone] | -1.86% | 50.61% | -1.35% | 52.71% |  |  |  | 
CS(=O)(=O)CCNCc1ccc(-c2ccc3ncnc(Nc4ccc(OCc5cccc(F)c5)c(Cl)c4)c3c2)o1.Cc1ccc(S(=O)(=O)O)cc1.Cc1ccc(S(=O)(=O)O)cc1 [Lapatinib, di-p-toluenesulfonate salt] |  |  |  |  | 63.38% | -29.52% | 62.65% | -21.39%
CS(=O)(=O)CCNCc1ccc(-c2ccc3ncnc(Nc4ccc(OCc5cccc(F)c5)c(Cl)c4)c3c2)o1 [Lapatinib] | -31.93% | 64.49% | -19.57% | 61.75% |  |  |  | 

Now from value to molecule, other results behind:

Plate 1 (% inhibition) [1] | Plate 1 (% conversion) [2] | Plate 1-duplicate (% inhibition) [3] | Plate 1-duplicate (% conversion) [4] | SMILES | Plate 1 (% conversion) | Plate 1 (% inhibition) | Plate 1-duplicate (% conversion) | Plate 1-duplicate (% inhibition)
72.42% | 16.31% | 72.94% | 15.87% | CC(C)C[C@H](NC(=O)CNC(=O)c1cc(Cl)ccc1Cl)B1OC(=O)C(CC(=O)O)(CC(=O)O)O1 [Ixazomib citrate] |  |  |  | 
32.19% | 34.89% | 30.40% | 36.96% | c1ccc2c(CCNc3ccc(Nc4ccncc4)cc3)c[nH]c2c1 [JNJ 26854165 (Serdemetan)] |  |  |  | 
-7.35% | 53.15% | -6.18% | 55.11% | Cn1cc(CNCC2CCN(c3ncc(C(=O)NO)cn3)CC2)c2ccccc21 [JNJ-26481585_Quisinostat] |  |  |  | 
5.18% | 47.36% | 4.86% | 49.63% | Cc1cccc(-c2nn3c(c2-c2ccnc4ccc(C(N)=O)cc24)CCC3)n1 [LY2157299] |  |  |  | 
-13.39% | 55.93% | -13.16% | 58.57% | CC(C)(C)Cn1c(N)nc2ccc(-c3[nH]c(C(C)(C)C)nc3-c3ccc(F)cc3)nc21 [LY2228820 (CP868569)] |  |  |  | 
-51.46% | 73.51% | -47.27% | 75.48% | Cc1cnc(NC(=O)Nc2cc(Br)c(C)cc2OC[C@@H]2CNCCO2)cn1 [LY2603618_Rabusertib] |  |  |  | 
-63.83% | 79.23% | -64.31% | 83.93% | Cc1cc(Nc2cc(CN3CCOCC3)c3nc(C)c(Cc4ccc(Cl)cc4F)n3n2)n[nH]1 [LY2784544_Gandotinib] |  |  |  | 
10.44% | 44.93% | -5.64% | 54.84% | CN(C)C[C@@H]1CCn2cc(c3ccccc32)C2=C(C(=O)NC2=O)c2cn(c3ccccc23)CCO1.CS(=O)(=O)O [LY 333531 mesylate_Ruboxistaurin] |  |  |  | 
4.47% | 47.69% | -1.73% | 52.90% | Oc1ccc2c(c1)CC[C@H](c1ccccc1)[C@@H]2c1ccc(OCCN2CCCC2)cc1 [Lasofoxifene] |  |  |  | 
 | 47.43% | 4.54% | 49.79% | Nc1cccc2c1CN(C1CCC(=O)NC1=O)C2=O (stereo not drawn) [Lenalidomide] |  |  |  | 
